Source: ChEMBL document CHEMBL1152685, “Structural basis of the selectivity of the beta(2)-adrenergic receptor for fluorinated catecholamines” (Bioorg Med Chem, 2009)

Tests used:
[1] = biological target: Beta-2 adrenergic receptor (Homo sapiens, UniProt P07550, N293L); experiment: Displacement of [3H]dihydroalprenolol from human adrenergic beta2 receptor N293L mutant expressed in COS7 cell membrane
[2] = biological target: Beta-2 adrenergic receptor (Homo sapiens, UniProt P07550, N293A); experiment: Displacement of [3H]dihydroalprenolol from human adrenergic beta2 receptor N293A mutant expressed in COS7 cell membrane
Chain of Beta-2 adrenergic receptor (Homo sapiens, UniProt P07550, N293A) (P07550 whole entry N293A): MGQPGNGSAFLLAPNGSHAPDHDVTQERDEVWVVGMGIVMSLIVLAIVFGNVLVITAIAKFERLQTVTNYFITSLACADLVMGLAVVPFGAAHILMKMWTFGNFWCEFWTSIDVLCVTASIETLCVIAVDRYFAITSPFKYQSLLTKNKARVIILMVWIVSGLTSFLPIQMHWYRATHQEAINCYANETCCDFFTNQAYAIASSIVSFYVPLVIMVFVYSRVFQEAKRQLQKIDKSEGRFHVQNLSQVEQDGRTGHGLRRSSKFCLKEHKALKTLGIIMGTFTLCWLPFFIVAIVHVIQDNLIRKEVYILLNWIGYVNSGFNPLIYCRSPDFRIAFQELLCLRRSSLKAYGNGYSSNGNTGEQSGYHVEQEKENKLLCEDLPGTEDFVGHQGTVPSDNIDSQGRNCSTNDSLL

[3] = biological target: Beta-2 adrenergic receptor (Homo sapiens, UniProt P07550, D192G/F193V); experiment: Displacement of [3H]dihydroalprenolol from human adrenergic beta2 receptor D192G, F193V mutant expressed in COS7 cell membrane
Chain of Beta-2 adrenergic receptor (Homo sapiens, UniProt P07550, D192G/F193V) (P07550 whole entry D192G/F193V): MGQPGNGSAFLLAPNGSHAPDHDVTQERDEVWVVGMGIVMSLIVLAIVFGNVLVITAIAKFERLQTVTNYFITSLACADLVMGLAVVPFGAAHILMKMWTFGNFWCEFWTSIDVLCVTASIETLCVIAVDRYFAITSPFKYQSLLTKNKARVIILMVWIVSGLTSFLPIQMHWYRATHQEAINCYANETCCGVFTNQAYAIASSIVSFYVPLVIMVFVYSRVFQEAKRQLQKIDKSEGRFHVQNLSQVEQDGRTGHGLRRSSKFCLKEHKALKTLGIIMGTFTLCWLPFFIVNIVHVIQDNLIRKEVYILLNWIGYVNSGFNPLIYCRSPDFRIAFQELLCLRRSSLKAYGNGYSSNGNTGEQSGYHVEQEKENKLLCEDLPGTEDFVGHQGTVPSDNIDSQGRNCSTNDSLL

[4] = biological target: Beta-2 adrenergic receptor (Homo sapiens, UniProt P07550); experiment: Displacement of [3H]dihydroalprenolol from human adrenergic beta2 receptor expressed in COS7 cell membrane
Chain of Beta-2 adrenergic receptor (Homo sapiens, UniProt P07550) (P07550 whole entry): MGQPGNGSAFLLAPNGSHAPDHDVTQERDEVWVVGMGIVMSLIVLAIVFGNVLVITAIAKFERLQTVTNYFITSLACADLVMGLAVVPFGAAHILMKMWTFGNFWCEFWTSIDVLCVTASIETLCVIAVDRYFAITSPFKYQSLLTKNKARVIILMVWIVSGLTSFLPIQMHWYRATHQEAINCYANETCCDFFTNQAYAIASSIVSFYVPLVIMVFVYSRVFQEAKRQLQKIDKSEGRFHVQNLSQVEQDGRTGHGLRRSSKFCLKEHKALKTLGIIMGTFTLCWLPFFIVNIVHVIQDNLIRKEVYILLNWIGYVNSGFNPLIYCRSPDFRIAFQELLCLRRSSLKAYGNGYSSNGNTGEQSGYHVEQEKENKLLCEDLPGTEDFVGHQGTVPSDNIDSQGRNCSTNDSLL

[5] = biological target: Beta-2 adrenergic receptor (Homo sapiens, UniProt P07550, N293Q); experiment: Displacement of [3H]dihydroalprenolol from human adrenergic beta2 receptor N293Q mutant expressed in COS7 cell membrane
Chain of Beta-2 adrenergic receptor (Homo sapiens, UniProt P07550, N293Q) (P07550 whole entry N293Q): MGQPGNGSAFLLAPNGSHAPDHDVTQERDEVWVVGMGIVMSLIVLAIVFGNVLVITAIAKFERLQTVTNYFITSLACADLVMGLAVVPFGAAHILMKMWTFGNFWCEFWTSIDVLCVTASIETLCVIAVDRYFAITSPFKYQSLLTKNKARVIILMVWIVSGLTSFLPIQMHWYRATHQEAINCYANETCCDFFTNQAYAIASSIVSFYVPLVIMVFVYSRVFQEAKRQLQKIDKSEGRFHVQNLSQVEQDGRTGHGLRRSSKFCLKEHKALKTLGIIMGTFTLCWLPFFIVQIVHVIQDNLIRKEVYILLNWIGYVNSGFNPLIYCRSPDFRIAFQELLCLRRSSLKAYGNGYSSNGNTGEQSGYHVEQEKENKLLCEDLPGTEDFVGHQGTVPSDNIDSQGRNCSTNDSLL

[6] = biological target: Beta-2 adrenergic receptor (Homo sapiens, UniProt P07550, V117C); experiment: Displacement of [3H]dihydroalprenolol from human adrenergic beta2 receptor V117C mutant expressed in COS7 cell membrane
Chain of Beta-2 adrenergic receptor (Homo sapiens, UniProt P07550, V117C) (P07550 whole entry V117C): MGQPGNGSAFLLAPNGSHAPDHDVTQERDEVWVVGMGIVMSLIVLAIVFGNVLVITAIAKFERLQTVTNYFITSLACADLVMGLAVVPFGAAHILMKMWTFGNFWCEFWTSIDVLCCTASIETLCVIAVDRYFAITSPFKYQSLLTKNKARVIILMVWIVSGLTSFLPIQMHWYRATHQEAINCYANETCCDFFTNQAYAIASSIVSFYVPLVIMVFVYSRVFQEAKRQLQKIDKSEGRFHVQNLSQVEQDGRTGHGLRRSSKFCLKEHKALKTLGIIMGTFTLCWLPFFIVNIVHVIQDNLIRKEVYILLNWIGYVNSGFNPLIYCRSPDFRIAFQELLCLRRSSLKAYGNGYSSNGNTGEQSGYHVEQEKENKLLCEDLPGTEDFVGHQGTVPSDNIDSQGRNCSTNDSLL

[7] = biological target: Beta-2 adrenergic receptor (Homo sapiens, UniProt P07550, N293F); experiment: Displacement of [3H]dihydroalprenolol from human adrenergic beta2 receptor N293F mutant expressed in COS7 cell membrane
Chain of Beta-2 adrenergic receptor (Homo sapiens, UniProt P07550, N293F) (P07550 whole entry N293F): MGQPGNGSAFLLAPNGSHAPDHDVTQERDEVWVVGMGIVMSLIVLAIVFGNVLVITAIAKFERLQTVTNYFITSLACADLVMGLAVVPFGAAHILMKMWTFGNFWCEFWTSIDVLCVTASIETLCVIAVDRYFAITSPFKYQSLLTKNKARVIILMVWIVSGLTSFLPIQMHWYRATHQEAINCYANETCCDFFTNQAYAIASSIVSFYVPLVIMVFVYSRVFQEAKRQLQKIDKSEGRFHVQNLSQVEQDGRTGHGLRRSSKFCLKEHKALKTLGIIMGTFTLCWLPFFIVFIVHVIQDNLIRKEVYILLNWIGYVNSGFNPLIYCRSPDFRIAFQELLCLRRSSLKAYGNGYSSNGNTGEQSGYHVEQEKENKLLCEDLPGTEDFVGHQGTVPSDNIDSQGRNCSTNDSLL

Chain of Beta-2 adrenergic receptor (Homo sapiens, UniProt P07550, N293L) (P07550 whole entry N293L): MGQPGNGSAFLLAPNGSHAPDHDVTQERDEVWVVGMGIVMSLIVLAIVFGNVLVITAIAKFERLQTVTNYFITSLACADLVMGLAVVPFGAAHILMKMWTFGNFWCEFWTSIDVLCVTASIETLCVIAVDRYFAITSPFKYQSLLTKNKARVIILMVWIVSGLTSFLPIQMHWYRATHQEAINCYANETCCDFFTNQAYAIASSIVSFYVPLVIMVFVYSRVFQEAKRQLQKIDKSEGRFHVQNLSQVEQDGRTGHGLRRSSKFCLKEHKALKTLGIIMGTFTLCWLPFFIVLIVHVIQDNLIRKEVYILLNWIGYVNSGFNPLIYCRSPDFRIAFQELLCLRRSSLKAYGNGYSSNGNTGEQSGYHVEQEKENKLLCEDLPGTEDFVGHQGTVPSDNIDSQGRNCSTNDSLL

NC[C@H](O)c1cc(O)c(O)cc1F
Ki [1]: 117 µM | Ki [2]: 319 µM | Ki [3]: 19.5 µM | Ki [4]: 15.8 µM | Ki [5]: 68.9 µM | Ki [6]: 39.8 µM | Ki [7]: 216 µM

NC[C@H](O)c1ccc(O)c(O)c1F
Ki [1]: 188 µM | Ki [2]: 5450 µM | Ki [3]: > 2000 µM | Ki [4]: 1160 µM | Ki [5]: 3330 µM | Ki [6]: > 2000 µM | Ki [7]: 70.1 µM
